pKi: −log10 of the molar value.
Experiments:
[1] = system: tonic hindlimb extensor seizures; assay: Anticonvulsant Assay (electroconvulsive shock); format: in vivo, mouse (CD-1); settings: for Protected from ECS (% of Mice): 30 min prior to ECS
From the text: The screens were then slowly inverted. […] The current was held constant at 15 mA. […] There were 10 mice in each treatment group.

[2] = system: CA1 region of the hippocampus; assay: Forebrain Ischemia Assay; format: in vivo, Mongolian gerbil; settings: for # of Neurons/Field: 7 days after 4-5 min carotid occlusion
Method: This assay was used to determine the extent of protection afforded by compound of the invention to neural brain cells subjected to ischemic conditions. Male Mongolian gerbils, 50-70 gm, were used as subjects. Compound No. 7 (30 mg/kg) was injected j.p. 30 minutes prior to carotid occlusion into 6 gerbils […]. In preparation for surgical procedures, the animals were lightly anesthetized with methoxyflurane and placed upside down on a heated pad with their snout within a nosecone. A 70:30 mixture of nitrous oxide and oxygen containing 0.5% halothane was circulated through the nosecone to provide continuous anesthesia throughout the surgical procedure. A midline incision was made in the neck and the carotid arteries were exposed. A length of suture thread was placed under each carotid. The thread was then tightened around each carotid and pressure applied to the thread to insure flow was occluded. Flow was occluded for 4-5 minutes and then the thread was removed. The carotids were visually inspected to confirm that reflow had occurred. The wound was then closed with autoclips and the gerbils allowed to recover. Following surgery, the gerbils were kept alive for 7 days. They were anesthetized with 100 mg/kg sodium pentobarbital and perfused transcardially with saline (with heparin) followed by buffered formalin. The brain was removed, trimmed and prepared for histological processing. Sections (10 microns) were stained with thionin. […] Quantification of the resulting lesion is made by counting the pyramidal cell somata in a 0.5 mm length of CAl of the hippocampus on the section corresponding to P 1.7 mm in the gerbil brain atlas.
Normal cell count in this region of the hippocampus in unoperated gerbils is 146±2. The effects of compound of Ex. #7 were assessed by comparing the number of neural cells found in the hippocampus of subjects treated with Ex. #7 compound with the cell number found in the appropriate control groups. […]

AMPA = assay: [3H]AMPA (QUIS) binding assay; set-up: species or system rat; settings: 10 nM [3H]AMPA, 100 mM KSCN, synaptic plasma membranes, pH 7.4, 0-4° C., 10 min; read-out: NMDA Receptor Binding Data, Ki IC50 Binding AMPA
Method: Synaptic plasma membranes (SPM) were prepared as previously described [Monahah, J. B. and Michel, J., "Identification and Characterization of an N-methyl-D-aspartate-specific L[^3 H]glutamate Recognition Site in Synaptic Plasma Membranes, J. Neurochem., 48, 1699-1708 (1987)]. The SPM were stored at a concentration of 10-15 mg/ml in 0.32M sucrose, 0.5 mM EDTA, 1 mM MgSO4, 5 mM Tris/SO4, pH 7.4, under liquid nitrogen. The identity and purity of the subcellular fractions were confirmed by both electron microscopy and marker enzymes. Protein concentrations were determined by using a modification of the method of Lowry [Ohnishi, S. T. and Barr, J. K., "A Simplified Method of Quantitating Proteins using the Biuret and Phenol Reagents", Anal. Biochem., 86, 193-197 (1978)]. The SPM were treated identically for the [^3 H]AMPA (QUIS), [^3 H]kainate and sodium-dependent L-[^3 H]-glumatate binding assays. The SPM were thawed at room temperature, diluted twenty-fold with 50mM Tris/acetate, pH 7.4, incubated at 37° C. for 30 minutes, and centrifuged at 100,000 g for 15 minutes. The dilution, incubation, and centrifugation was repeated a total of three times. Prior to use in the NMDA-specific L-[^3 H]-glutamate binding assay the SPM were thawed, diluted twenty fold with 50 mM Tris/acetate, pH 7.4 containing 0.04% (v/v) Triton X-100, incubated for 30 minutes at 37° C. and centrifuged as described above. The Triton X-100 treated membranes were washed with 50 mM Tris/acetate, pH 7.4 and centrifuged at 100,000 g for 15 minutes a total of four times. […] The basic procedure for the receptor subclass binding assays was similar. This general method involved adding the radioligand (12.5 nM L-[^3 H] glutamate; 0.5 nM [^3 H]kainate or 10 nM [^3 H]AMPA) to the appropriate concentration of the test compound and initiating the assay by the addition of ice cold synaptic plasma membranes (0.2-0.45 mg). The binding assays were performed in 1.5 mL centrifuge tubes with the total volume adjusted to 1.0 mL. Additions of test compounds were made in 50 mM Tris/acetate, pH 7.4 and incubations were carried out at 0°-4° C. The incubation time for the NMDA and the AMPA binding assays was 10 minutes, for the kainate binding assay 60 minutes and for the sodium-dependent glutamate binding assay 15 minutes. The AMPA binding assay contained 100 mM KSCN and the sodium-dependent glutamate binding assay contained 150 mM sodium acetate in addition to the previously described reagents. To terminate the incubation, the samples were centrifuged for 15 minutes at 12,000 g and 4° C. in a Beckman Microfuge 12. The supernatant was aspirated and the pelleted membranes dissolved in Beckman BTS-450 tissue solubilizer for a minimum of 6 hours at room temperature. Beckman MP scintillation cocktail containing 7 mL/1 acetic acid was then added and the samples counted on a Beckman LS 5800 or 3801 liquid scintillation counter with automatic corrections for quenching and counting efficiency. Nonspecific binding was defined as the residual binding in the presence of either excess L-glutamate (0.1-0.4 mM), kainate (0.01 mM), or NMDA (0.5 mM), and was 15-25% of the total binding in the NMDA binding assay, 19-27% in the AMPA binding assay, 20-30% in the kainate binding assay and 10-15% in the sodium-dependent binding assay. Radioligand binding to the synaptic plasma membranes was analyzed using Scatchard and Hill transformations and the Ki values of the compounds determined using logit-log transformations. Calculations and regression analysis were performed using templates developed for Lotus 1, 2, 3 as previously described [Pullan, L. M. "Automated Radioligand Receptor Binding Analysis with Templates for Lotus", Computer Appln. Biosci., 3, 131 (1987)]. Binding results are reported in Table I for example compounds of the invention.

With O=C(O)c1cn2c(CP(=O)(O)O)cccc2n1 [Example 7, 5-(phosphonomethyl)imidazo[1,2-a]pyridine-2-carboxylic acid] the “Protected from ECS (% of Mice)” value ([1]; 10 mg/kg s.c.) was 20%, the “Protected from ECS (% of Mice)” value ([1]; 32 mg/kg s.c.) was 60% and the “Protected from ECS (% of Mice)” value ([1]; 56 mg/kg s.c.) was 90%. For the same molecule, the “Protected from ECS (% of Mice)” value ([1]; 100 mg/kg s.c.) was 100%, the ED50 ([1]; Mus musculus, sc, 0.5 h, s.c., doses in mg/kg, 95% CI 12.3-32.9, read-out: Protected from ECS ED50) was 21.8 mg/kg and the “protection against tonic hindlimb extensor seizures (in words)” value ([1]; s.c.) was “protected against tonic hindlimb extensor seizures in a dose-dependent fashion”. The “# of Neurons/Field” value ([2]; 300 mg/kg, control 32.8, P < 0.05) was 53.0, the “# of Neurons/Field” value ([2]; 500 mg/kg, control 17.0, p < 0.0001) was 112.6 and the cell loss ([2]; vs control, Mann-Whitney U test) was “significantly reduced”. The pKi (AMPA) was under 3.52.
